Several values for one entry are separate records, joined by “and”; a condition that tells them apart may be missing. Equal entries are not always repeated. Entries after “also recorded” stand apart in the source; their conditions may differ. Where a SMILES comes first, the peptide text is derived from it. [ ]: non-standard residue; d: D form. The star is where a group is joined. Hexanoyl = CCCCCC(=O)*; Ahx = NCCCCCC(=O)O
Key:
c-Met receptor = test: c-Met phosphorylation in acute adult rat hippocampal slices; format: cell-based; settings: 30 minutes
Excerpt: Adult Sprague-Dawley rats (250 g+) obtained from Harlan Laboratories (Ca, USA) were anesthetized with isofluorane (Vet One™, MWI, Meridian, Id., USA) and decapitated. The brain was rapidly removed and placed into ice-chilled artificial cerebrospinal fluid (aCSF) for approximately 30 s. Both hemispheres were separated by a mid-saggital cut and both hippocampi removed. Slices were sectioned cross- and length-wise (400 μm) to ensure penetrability of the drug, using a McIlwain tissue chopper (Brinkmann, Gomshall, UK) and transferred to a gassed (95% O2/5% CO2) incubation chamber containing aCSF for 90 minutes at room temperature. Slices were transferred to fresh tubes, aCSF was removed by careful suctioning and replaced with aCSF containing vehicle (aCSF+aCSF), 100 ng/ml with carrier free adult recombinant Hepatocyte Growth Factor (HGF) (R and D Systems, MN, USA) in aCSF, 10^−10 M Hinge (Harding lab), […], 10^−10 M Dihexa (Harding lab) in aCSF, 10^−12 M Dihexa in aCSF or 50 ng/ml HGF+10^−12 M Dihexa in aCSF for 30 minutes at 37° C. with gentle rocking. aCSF was removed and the slices were lysed using RIPA buffer (Upstate/Milipore, Billerica, Mass.) and inhibitor Cocktails I and II (Sigma, St. Louis, Mo.), sonicated on ice and clarified by centrifugation for 30 minutes, 13,000 rpm at 4° C. The supernatant was removed from the pellet and stored at −80° C. or processed immediately for gel electrophoresis.
Protein concentration of the samples was quantified using the BCA method (Pierce, Rockford, Ill.) following the manufacturers protocol. Samples were added to SDS-PAGE buffer and boiled for 10 min. before loading onto a 4-12% Bis-Tris pre-cast gel (Invitrogen, Carlsbad, Calif.) for electrophoresis. Proteins were transferred onto PVDF membranes (Bio Rad, Hercules, Calif.) and blocked with AquaBlock™ (New England Biolabs, Ipswich, Mass.) for 1 hour at room temperature (RT). Primary antibody incubation was done in AquaBlock™ with rabbit anti-Met and […] phospho-Met (Tyr1234/1235) (1:1000, Cell Signaling Technology, Danvers, Mass.) overnight at 4° C. Alternating washes were done with PBS and PBST. Secondary antibody (IRDye) (Rockland, Gilbertsville, Pa.) incubations were done in AquaBlock™ for one hour at RT. Blots were imaged using LI-COR Odyssey Infrared Imaging System (LI-COR Biosciences, Lincoln, Nebr.).

rats = test: Morris water maze with i.c.v. Dihexa and HGF antagonist Hinge; format: in vivo, rat; settings: scopolamine treated rats
6-OHDA lesioned rats = test: Unilateral 6-OHDA substantia nigra lesion model; format: in vivo, rat
Description: FIG. 41. Dihexa restores performance in the rope hang test. Two weeks after producing a unilateral lesion with 6-OHDA in the substantia nigra, rats were treated with either 0.5 mg/kg of Dihexa or equivalent volumes of the vehicle ip.
FIG. 42A-C. Dihexa restored normal walking in the gait analysis test. Two weeks after producing a unilateral lesion with 6-OHDA in the substantia nigra, rats were treated with either 0.5 mg/kg of Dihexa or equivalent volumes of the vehicle ip. […] A, animal foot prints; B, left stride length; C, right stride length. Note that the dragging of the left hind leg observed in the untreated lesioned rats was absent from the treated group.
FIG. 43. Dihexa restores tyrosine hyroxlase staining, which is indicative of the presence of dopaminiergic neurons in the substantia nigra (SN). Two weeks after the induction of an unilateral 6-OHDA lesion, rats were treated with either 0.5 mg/kg Dihexa or an equivalent volume of vehicle ip. for 34 days.

[1] = Dihexa plasma levels after IV infusion; format: in vivo, rat
Description: FIG. 46. Dihexa plasma levels after intravascular (IV) infusion. Dihexa was administered to adult male Sprague Dawley rats at 10 mg/kg. Plasma sample were collected and analyzed by HPLC-MS. Plasma data were modeled by non-compartmental analysis using WinNonlin® software.

[2] = Phase I metabolism of Dihexa; format: in vitro ADME
scopolamine treated rats = test: Morris water maze, scopolamine amnesia model; settings: scopolamine ICV
Description: Male Sprague-Dawley rats (Taconic derived) weighing 390-450 g were maintained with free access to water and food (Harland Tekland F6 rodent diet, Madison, Wis.) except the night prior to surgery when food was removed. Each animal was anesthetized with Ketamine hydrochloride plus Xylazine (100 and 2 mg/kg im. respectively; Phoenix Scientific; St. Joseph, Mo., and Moby; Shawnee, Kans.). […] The guide cannula measured 2.5 cm in overall length and was prepared with a heat bulge placed 2.5 mm from its beveled tip, thus acting as a stop to control the depth of penetration. Once in position, the cannula was secured to the skull with two stainless-steel screws and dental cement. Post-operatively the animals were housed individually in an American Accreditation for Laboratory Animal Care-approved vivarium maintained at 22±1° C. on a 12-h alternating light/dark cycle initiated at 06:00 h. All animals were hand gentled for 5 min per day during the 5-6 days of post-surgical recovery. Histological verification of cannula placement was accomplished by the injection of 5 μl fast-green dye via the guide cannula following the completion of behavioral testing.
A black circular platform (diameter: 12 cm; height: 24 cm) was placed 30 cm from the wall and submerged 2 cm below the water surface. The maze was operationally sectioned into four equal quadrants designated NW, NE, SW, and SE. For each rat the location of the platform was randomly assigned to one of the quadrants and remained fixed throughout the duration of training. Entry points were at the quadrant corners (i.e. N, S, E, and W) and were pseudo-randomly assigned such that each trial began at a different entry point than the preceding trial. Three of the four testing room walls were covered with extra-maze spatial cues consisting of different shapes (circles, squares, triangles) and colors. The swimming path of the animals was recorded using a computerized video tracking system (Chromotrack; San Diego Instruments, CA). […] Swim speed was determined from these values.
Each member of the treatment groups in the scopolamine studies received an icy injection of scopolamine hydrobromide (70 nmol in 2 μl aCSF over a duration of 20 s) 30 min prior to testing followed by Dihexa 10 min prior to testing. Control groups received scopolamine or aCSF 20 min prior to testing followed by aCSF 10 min prior testing. […] The rats in the aged rat study on received Dihexa of aCSF (control group). Briefly, acquisition trials were conducted on 8 consecutive days with 5 trials/day. On the first day of training the animal was placed on the platform for 30 s prior to the first trial. Trials commenced with the placement of the rat facing the wall of the maze at one of the assigned entry points. […] Once the animal located the platform it was permitted a 30 s rest period on the platform. […] The next trial commenced immediately following the rest period.
Following day 8 of acquisition training, one additional trial was conducted during which the platform was removed (probe trial). […] Total time spent within the target quadrant where the platform had been located during acquisition and the number of crossings of that quadrant was recorded.

[3] = saturating doses: HGF 100 ng/ml, Dihexa 10^−10 M
[4] = sub-threshold doses: HGF 50 ng/ml, Dihexa 10^−12 M
[5] = 0.5 mg/kg ip, started two weeks after lesion

| Compound | c-Met phosphorylation vs vehicle (aCSF) (c-Met receptor; [3]) | c-Met phosphorylation vs vehicle (aCSF) (c-Met receptor; [4]) | Mean latency to find the pedestal, day one (rats) | Mean latency to find the pedestal, final day (day 8) (rats) | Mean latency to find the pedestal, fourth day (rats) | Tyrosine hydroxylase staining in the substantia nigra (6-OHDA lesioned rats; 0.5 mg/kg ip for 34 days / six weeks) | Gait analysis, stride length (6-OHDA lesioned rats; [5]) | Rope hang test performance (6-OHDA lesioned rats; [5]) | Recovery of SN TH staining (6-OHDA lesioned rats; three months of Dihexa treatment) | Elimination (circulating) half-life t1/2 ([1]; IV 10 mg/kg, adult male Sprague Dawley rats, non-compartmental analysis, 10 mg/kg) | Excretion ([1]; urine) | Phase I metabolism [2] | Water maze latency to find the pedestal: reversal of scopolamine deficits (scopolamine treated rats; Dihexa ICV high dose (100 μmoles, 100 pmoles elsewhere in the source), 5 trials/day, 8 days) | Water maze latency to find the pedestal: reversal of scopolamine deficits (scopolamine treated rats; Dihexa ICV low dose 10 μmoles) | Water maze latency to find the pedestal: reversal of scopolamine deficits (scopolamine treated rats; Dihexa IP 0.5 mg/kg (high dose)) | Water maze latency to find the pedestal: reversal of scopolamine deficits (scopolamine treated rats; Dihexa orally 2 mg/kg/day (high dose), 2 mg/kg/day) |
| --- | --- | --- | --- | --- | --- | --- | --- | --- | --- | --- | --- | --- | --- | --- | --- | --- |
| CCCCCC(=O)N[C@@H](Cc1ccc(O)cc1)C(=O)N[C@H](C(=O)NCCCCCC(N)=O)[C@@H](C)CC [Dihexa, N-hexanoic-Tyr-Ile-(6)-aminohexanoic amide] (Hexanoyl-Tyr-Ile-[Ahx]-NH2) | both increased c-Met phosphorylation; also recorded: effectively augment c-Met phosphorylation | not statistically different from control treated slices; also recorded: did not significantly increase c-Met receptor phosphorylation | 115.2 s | 62.3 s | 63.0 s | dramatic restoration of tyrosine hydroxylase (TH) staining; also recorded: completely restored the tyrosine hydroxylase staining in the SN | recovery of normal motor function; also recorded: completely restored the normal stride length | completely restores performance in the rope hang test; also recorded: completely restored the performance of the treated animals on the rope hang test | ~100% | > 12 days and 12.68 days | excreted intact in the urine | resistant to phase I metabolism; also recorded: undergoes little phase I metabolism | reversed scopolamine-dependent learning deficits; also recorded: completely overcome the scopolamine deficits | not 10 μmoles reversed scopolamine-dependent learning deficits | completely reverse the deficit seen with scopolamine | no different than controls; also recorded: completely overcome the scopolamine deficits; also recorded: completely reverse the deficit seen with scopolamine; also recorded: completely reverse the deficit produced by scopolamine |
| HGF: Hepatocyte growth factor, recombinant, purchased from R&D Systems | both increased c-Met phosphorylation; also recorded: effectively augment c-Met phosphorylation | not statistically different from control treated slices; also recorded: did not significantly increase c-Met receptor phosphorylation | – | – | – | – | – | – | – | – | – | – | – | – | – | – |

From US20140094413A1, “HEPATOCYTE GROWTH FACTOR (HGF) MIMICS AS THERAPEUTIC AGENTS” (WASHINGTON STATE UNIVERSITY, priority 2012, published 2014)
